Each structure is given as a SMILES string. Calls of active or inactive are those of the source. No cut-off for these calls is given here.

The target of the first assay is T1, Tyrosine-protein phosphatase non-receptor type 1 (Homo sapiens, UniProt P18031).
T1 sequence (P18031 whole entry): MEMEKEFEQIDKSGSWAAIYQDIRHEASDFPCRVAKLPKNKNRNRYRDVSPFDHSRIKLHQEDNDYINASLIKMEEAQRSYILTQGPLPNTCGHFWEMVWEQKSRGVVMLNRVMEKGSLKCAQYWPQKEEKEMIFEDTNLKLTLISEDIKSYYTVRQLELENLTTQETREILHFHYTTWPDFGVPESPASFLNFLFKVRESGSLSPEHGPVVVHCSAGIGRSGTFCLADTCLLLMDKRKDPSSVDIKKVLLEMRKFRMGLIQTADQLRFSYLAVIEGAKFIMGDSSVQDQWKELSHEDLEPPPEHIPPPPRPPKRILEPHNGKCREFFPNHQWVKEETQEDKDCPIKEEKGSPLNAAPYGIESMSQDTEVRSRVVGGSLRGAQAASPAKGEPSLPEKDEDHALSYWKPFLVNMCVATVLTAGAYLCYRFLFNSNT
Nature of the assay: Inhibition of wild type N-terminal 6 his tagged human PTP1B (1 to 400 residues) expressed in Escherichia coli (Rosetta, DE3) using p-NPP as substrate preincubated for 10 mins followed by substrate addition and measured after 20 mins by absorbance based analysis.
Conditions: not given
For orientation: IC50 means the concentration needed to halve the response being measured. High values mean a need for much substance, low ones inhibition by little substance. In turn, `CC(=O)O[C@H]1[C@@H]2C(=O)c3c(C)cc(O)c4c3[C@@]1(COC4=O)C1=C2c2c(C)cc(O)c3c(=O)n(-c4ccccc4I)cc(c23)C1=O` gave an IC50 of 17.5 µM.
`CO[C@@]12c3c(C)cc(O)c4c(=O)n(-c5ccc(Br)cc5)cc(c34)C(=O)[C@@H]1[C@]13COC(=O)c4c(O)cc(C)c(c41)C(=O)[C@H]2[C@@H]3OC(C)=O` displayed an IC50 of 47.4 µM.
Still for that read-out and setting: next, `CCOC(=O)[C@H](Cc1ccccc1)n1cc2c3c(c(C)cc(O)c3c1=O)[C@]1(OC)[C@H](C2=O)[C@]23COC(=O)c4c(O)cc(C)c(c42)C(=O)[C@H]1[C@@H]3OC(C)=O`: 55.6 µM; `CO[C@@]12c3c(C)cc(O)c4c(=O)n(-c5cccc(Cl)c5)cc(c34)C(=O)[C@@H]1[C@]13COC(=O)c4c(O)cc(C)c(c41)C(=O)[C@H]2[C@@H]3OC(C)=O`: 73.1 µM; `CC(=O)O[C@H]1[C@@H]2C(=O)c3c(C)cc(O)c4c3[C@@]1(COC4=O)C1=C2c2c(C)cc(O)c3c(=O)n(-c4cccc(Cl)c4)cc(c23)C1=O`: 23.7 µM.
On to `CC(=O)O[C@H]1[C@@H]2C(=O)c3c(C)cc(O)c4c3[C@@]1(COC4=O)C1=C2c2c(C)cc(O)c3c(=O)[nH]cc(c23)C1=O`, for which the IC50 came to 36.6 µM.
Same read-out and setting: next, `CO[C@H]1OC(=O)c2c(O)cc(C)c3c4c(c(O)c1c23)[C@]12COC(=O)c3c(O)cc(C)c(c31)C(=O)[C@H]4[C@@H]2OC(C)=O`: 38 µM; `CC(=O)O[C@H]1[C@@H]2C(=O)c3c(C)cc(O)c4c3[C@@]1(COC4=O)c1c(O)c(C=O)c3cc(O)cc(C)c3c12`: 3.5 µM.
Compound `CO[C@@]12c3c(C)cc(O)c4c(=O)n(-c5cccc([N+](=O)[O-])c5)cc(c34)C(=O)[C@@H]1[C@]13COC(=O)c4c(O)cc(C)c(c41)C(=O)[C@H]2[C@@H]3OC(C)=O` returned an IC50 of 12.3 µM.
Regarding `CC(=O)O[C@H]1[C@@H]2C(=O)c3c(C)cc(O)c4c3[C@@]1(COC4=O)C1=C2c2c(C)cc(O)c3c(=O)n(-c4ccccc4Cl)cc(c23)C1=O`, the half-maximal inhibitory concentration (IC50) was found to be 38.8 µM. This IC50 is about 3.2-fold higher than that of the compound before.
On to `CC(=O)O[C@H]1[C@@H]2C(=O)c3c(C)cc(O)c4c3[C@@]1(COC4=O)C1=C2c2c(C)cc(O)c3c(=O)n(-c4cccc([N+](=O)[O-])c4)cc(c23)C1=O`, for which the IC50 was determined as 8 µM.
`CC(=O)O[C@H]1[C@@H]2C(=O)c3c(C)cc(O)c4c3[C@@]1(COC4=O)C1=C2c2c(C)cc(O)c3c(=O)n(-c4cccc5ncccc45)cc(c23)C1=O`: the IC50 came to 15.9 µM.
As for `CO[C@@]12c3c(C)cc(O)c4c3C(=C(O)[C@@H]1[C@]13COC(=O)c5c(O)cc(C)c(c51)C(=O)[C@H]2[C@@H]3OC(C)=O)C=NC4=O`, half-maximal inhibition (IC50) required 23.7 µM. This IC50 and that of the compound before are within 1.5-fold of each other.
In turn, `COc1ccc(-n2cc3c4c(c(C)cc(O)c4c2=O)C2=C(C3=O)[C@]34COC(=O)c5c(O)cc(C)c(c53)C(=O)[C@H]2[C@@H]4OC(C)=O)cc1` gave a half-maximal inhibitory concentration (IC50) of 14.7 µM.
In turn, `CC(=O)O[C@H]1[C@@H]2C(=O)c3c(C)cc(O)c4c3[C@@]1(COC4=O)c1c(O)c3c4c(c(O)cc(C)c4c12)C(=O)OC3=O` displayed a half-maximal inhibitory concentration (IC50) of 21.9 µM. The IC50 values of the last two compounds are within 1.5-fold of each other.
Compound `CC(=O)O[C@H]1[C@@H]2C(=O)c3c(C)cc(O)c4c3[C@@]1(COC4=O)C1=C2c2c(C)cc(O)c3c(=O)n(-c4ccccc4[N+](=O)[O-])cc(c23)C1=O` registered an IC50 of 27.2 µM.
`CCOC(=O)[C@H](Cc1ccccc1)n1cc2c3c(c(C)cc(O)c3c1=O)C1=C(C2=O)[C@]23COC(=O)c4c(O)cc(C)c(c42)C(=O)[C@H]1[C@@H]3OC(C)=O` registered a 50% inhibitory concentration (IC50) of 22.9 µM.
For the compound `CC(=O)O[C@H]1[C@@H]2C(=O)c3c(C)cc(O)c4c3[C@@]1(COC4=O)C1=C2c2c(C)cc(O)c3c(=O)n(-c4ccccc4F)cc(c23)C1=O`, half-maximal inhibition (IC50) required 35 µM. Against the preceding compound, the IC50 is about 1.5-fold higher.
Still for that read-out and setting: next, `CC(=O)O[C@H]1[C@@H]2C(=O)c3c(C)cc(O)c4c3[C@@]1(COC4=O)C1=C2c2c(C)cc(O)c3c(=O)n(-c4ccccn4)cc(c23)C1=O`: 36.4 µM; `CC(=O)O[C@H]1[C@@H]2C(=O)c3c(C)cc(O)c4c3[C@@]1(COC4=O)C1=C2c2c(C)cc(O)c3c(=O)n(-c4ccc(Cl)cc4)cc(c23)C1=O`: 13.9 µM.
The compound `CC(=O)O[C@H]1[C@@H]2C(=O)c3c(C)cc(O)c4c3[C@@]1(COC4=O)C1=C2c2c(C)cc(O)c3c(=O)n(-c4cccnc4)cc(c23)C1=O` showed an IC50 of 56.9 µM.
The compound `CC(=O)O[C@H]1[C@@H]2C(=O)c3c(C)cc(O)c4c3[C@@]1(COC4=O)C1=C2c2c(C)cc(O)c3c(=O)n(-c4ccc(O)cc4)cc(c23)C1=O` registered an IC50 of 23.7 µM.
The same measure, in the same setting: next, `CO[C@@]12c3c(C)cc(O)c4c(=O)n(-c5ccc(C)cc5)cc(c34)C(=O)[C@@H]1[C@]13COC(=O)c4c(O)cc(C)c(c41)C(=O)[C@H]2[C@@H]3OC(C)=O`: 35.3 µM; `COc1ccc(-n2cc3c4c(c(C)cc(O)c4c2=O)C2=C(C3=O)[C@]34COC(=O)c5c(O)cc(C)c(c53)C(=O)[C@H]2[C@@H]4OC(C)=O)cc1OC`: 16.9 µM.
`CC(=O)O[C@H]1[C@@H]2C(=O)c3c(C)cc(O)c4c3[C@@]1(COC4=O)c1c(O)c3c4c(c(O)cc(C)c4c12)C(=O)O3` displayed a 50% inhibitory concentration (IC50) of 82.1 µM.
`CC(=O)O[C@H]1[C@@H]2C(=O)c3c(C)cc(O)c4c3[C@@]1(COC4=O)C1=C2c2c(C)cc(O)c3c(=O)n(-c4ccc5ncccc5c4)cc(c23)C1=O` gave an IC50 of 5.7 µM. Against the preceding compound, the IC50 is about 14-fold lower.
`COc1cc(-n2cc3c4c(c(C)cc(O)c4c2=O)C2=C(C3=O)[C@]34COC(=O)c5c(O)cc(C)c(c53)C(=O)[C@H]2[C@@H]4OC(C)=O)cc(OC)c1OC`: the IC50 was found to be 52.4 µM.
`CC(=O)O[C@H]1[C@@H]2C(=O)c3c(C)cc(O)c4c3[C@@]1(COC4=O)C1=C2c2c(C)cc(O)c3c(=O)n(-c4ccccc4O)cc(c23)C1=O` came in with an IC50 of 13.2 µM.
`CC(=O)O[C@H]1[C@@H]2C(=O)c3c(C)cc(O)c4c3[C@@]1(COC4=O)C1=C2c2c(C)cc(O)c3c(=O)n(-c4ccccc4)cc(c23)C1=O` gave a 50% inhibitory concentration (IC50) of 78.4 µM.
`CC(=O)O[C@H]1[C@@H]2C(=O)c3c(C)cc(O)c4c3[C@@]1(COC4=O)C1=C2c2c(C)cc(O)c3c(=O)n(-c4cc(C)ccn4)cc(c23)C1=O` registered an IC50 of 15.7 µM.
Same read-out and setting: next, `CC(=O)O[C@H]1[C@@H]2C(=O)c3c(C)cc(O)c4c3[C@@]1(COC4=O)C1=C2c2c(C)cc(O)c3c(=O)n(-c4ccc(O)cc4[N+](=O)[O-])cc(c23)C1=O`: 31.6 µM; `CC(=O)O[C@H]1[C@@H]2C(=O)c3c(C)cc(O)c4c3[C@@]1(COC4=O)C1=C2c2c(C)cc(O)c3c(=O)n(-c4ccc(I)cc4)cc(c23)C1=O`: 13 µM; `CC(=O)O[C@H]1[C@@H]2C(=O)c3c(C)cc(O)c4c3[C@@]1(COC4=O)C1=C2c2c(C)cc(O)c3c(=O)n(-c4ncccc4C)cc(c23)C1=O`: 32.3 µM.
`CO[C@@]12c3c(C)cc(O)c4c(=O)n(CC(=O)O)cc(c34)C(=O)[C@@H]1[C@]13COC(=O)c4c(O)cc(C)c(c41)C(=O)[C@H]2[C@@H]3OC(C)=O` showed an IC50 of 13.5 µM.
In the case of `CC(=O)O[C@H]1[C@@H]2C(=O)c3c(C)cc(O)c4c3[C@@]1(COC4=O)C1=C2c2c(C)cc(O)c3c(=O)n(-c4ccc(Br)cc4)cc(c23)C1=O`, inhibition was half-maximal at 9.3 µM (IC50).
`CC(=O)O[C@H]1[C@@H]2C(=O)c3c(C)cc(O)c4c3[C@@]1(COC4=O)C1=C2c2c(C)cc(O)c3c(=O)n(-c4cnc5ccccc5c4)cc(c23)C1=O` showed an IC50 of 23.3 µM.
Still for that read-out and setting: next, `CO[C@@]12c3c(C)cc(O)c4c(=O)n(-c5ccc([N+](=O)[O-])cc5)cc(c34)C(=O)[C@@H]1[C@]13COC(=O)c4c(O)cc(C)c(c41)C(=O)[C@H]2[C@@H]3OC(C)=O`: 7.7 µM; `CC(=O)O[C@H]1[C@@H]2C(=O)c3c(C)cc(O)c4c3[C@@]1(COC4=O)C1=C2c2c(C)cc(O)c3c(=O)n(-c4ccc(C)cc4)cc(c23)C1=O`: 3.2 µM; `CC(=O)O[C@H]1[C@@H]2C(=O)c3c(C)cc(O)c4c3[C@@]1(COC4=O)C1=C2c2c(C)cc(O)c3c(=O)n(-c4cccc5cccnc45)cc(c23)C1=O`: 6.4 µM.
The compound `CO[C@@H]1OC(=O)c2c(O)cc(C)c3c4c(c(O)c1c23)[C@]12COC(=O)c3c(O)cc(C)c(c31)C(=O)[C@H]4[C@@H]2OC(C)=O` had a half-inhibitory concentration (IC50) of 12.6 µM.

The next assay addresses T2, Tyrosine-protein phosphatase non-receptor type 1 (Homo sapiens) (UniProt P18031).
T2 sequence (whole entry): T1 sequence (P18031 whole entry)
Nature of the assay: Inhibition of wild type N-terminal 6 his tagged human PTP1B (1 to 400 residues) expressed in Escherichia coli (Rosetta, DE3) using p-NPP as substrate at 100 uM preincubated for 10 mins followed by substrate addition and measured after 20 mins by absorbance based analysis. The settings on record: time 30.0 min.
In the case of `CO[C@@]12c3c(C)cc(O)c4c(=O)n(-c5ccccc5)cc(c34)C(=O)[C@@H]1[C@]13COC(=O)c4c(O)cc(C)c(c41)C(=O)[C@H]2[C@@H]3OC(C)=O`, the inhibition result is “inactive”.
On to `CO[C@@]12c3c(C)cc(O)c4c(=O)n([C@H](C(=O)O)C(C)C)cc(c34)C(=O)[C@@H]1[C@]13COC(=O)c4c(O)cc(C)c(c41)C(=O)[C@H]2[C@@H]3OC(C)=O`, for which the inhibition entry was “inactive”.
Consider `CO[C@@]12c3c(C)cc(O)c4c(=O)n([C@@H](CC(=O)O)C(=O)O)cc(c34)C(=O)[C@@H]1[C@]13COC(=O)c4c(O)cc(C)c(c41)C(=O)[C@H]2[C@@H]3OC(C)=O`, for which the inhibition result was “inactive”.

Another assay has as its target T2, Tyrosine-protein phosphatase non-receptor type 1 (Homo sapiens). In words: Binding affinity to wild type N-terminal 6 his tagged human PTP1B (1 to 400 residues) expressed in Escherichia coli (Rosetta, DE3) assessed as affinity constant by fluorescence based analysis.
Conditions: not given
As to `CO[C@@]12c3c(C)cc(O)c4c(=O)n(-c5ccc([N+](=O)[O-])cc5)cc(c34)C(=O)[C@@H]1[C@]13COC(=O)c4c(O)cc(C)c(c41)C(=O)[C@H]2[C@@H]3OC(C)=O`, the Ka was 2.1 10^5/M.

Values taken from ChEMBL document CHEMBL5375978, “Harnessing the Reactivity of Duclauxin toward Obtaining hPTP1B1-400 Inhibitors” (J Med Chem, 2023).
